In ChEMBL document CHEMBL1201862, “PubChem BioAssay data set” (2004):
Activity calls are given as the source filed them.

What was measured:
[1] = target: T1, Short transient receptor potential channel 4 (Mus musculus, UniProt Q9QUQ5); assay: mouse TRPC4 channel activators, dose response, cell-based, HEK293 TRPC4/mu-opioid, Fluo-4 calcium (AID 434937); format: functional
T1 sequence (Q9QUQ5 whole entry): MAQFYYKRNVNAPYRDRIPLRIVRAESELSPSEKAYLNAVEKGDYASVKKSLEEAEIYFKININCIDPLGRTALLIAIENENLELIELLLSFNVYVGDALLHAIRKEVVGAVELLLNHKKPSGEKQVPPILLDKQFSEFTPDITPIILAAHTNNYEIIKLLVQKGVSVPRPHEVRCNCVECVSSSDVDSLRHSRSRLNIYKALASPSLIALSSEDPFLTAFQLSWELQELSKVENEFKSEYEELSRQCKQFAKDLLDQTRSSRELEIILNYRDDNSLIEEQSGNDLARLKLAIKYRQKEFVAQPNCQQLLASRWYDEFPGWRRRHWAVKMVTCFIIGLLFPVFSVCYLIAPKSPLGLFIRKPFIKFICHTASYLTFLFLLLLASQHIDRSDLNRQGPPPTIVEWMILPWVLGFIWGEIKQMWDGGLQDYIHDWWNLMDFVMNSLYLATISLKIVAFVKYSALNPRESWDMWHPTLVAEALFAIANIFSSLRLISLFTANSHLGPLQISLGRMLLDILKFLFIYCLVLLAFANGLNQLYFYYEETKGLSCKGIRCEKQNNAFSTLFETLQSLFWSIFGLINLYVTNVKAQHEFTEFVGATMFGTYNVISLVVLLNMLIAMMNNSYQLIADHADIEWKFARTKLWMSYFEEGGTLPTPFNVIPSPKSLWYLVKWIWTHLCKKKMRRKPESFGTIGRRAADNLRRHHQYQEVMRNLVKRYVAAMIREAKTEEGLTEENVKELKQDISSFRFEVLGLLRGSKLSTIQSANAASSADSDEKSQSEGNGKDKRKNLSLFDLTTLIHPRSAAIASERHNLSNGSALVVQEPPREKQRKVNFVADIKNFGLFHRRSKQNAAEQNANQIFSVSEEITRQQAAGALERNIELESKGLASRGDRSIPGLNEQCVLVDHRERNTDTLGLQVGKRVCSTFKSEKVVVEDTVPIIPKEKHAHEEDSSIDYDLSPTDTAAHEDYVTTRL

[2] = target: DNA repair and recombination protein RAD54-like (Homo sapiens, UniProt Q92698); assay: inhibitors of human RAD54 branch migration, confirmation, biochemical, fluorescence, cherry-picked samples, dose series (AID 651657); format: functional
Chain of DNA repair and recombination protein RAD54-like (Q92698 whole entry): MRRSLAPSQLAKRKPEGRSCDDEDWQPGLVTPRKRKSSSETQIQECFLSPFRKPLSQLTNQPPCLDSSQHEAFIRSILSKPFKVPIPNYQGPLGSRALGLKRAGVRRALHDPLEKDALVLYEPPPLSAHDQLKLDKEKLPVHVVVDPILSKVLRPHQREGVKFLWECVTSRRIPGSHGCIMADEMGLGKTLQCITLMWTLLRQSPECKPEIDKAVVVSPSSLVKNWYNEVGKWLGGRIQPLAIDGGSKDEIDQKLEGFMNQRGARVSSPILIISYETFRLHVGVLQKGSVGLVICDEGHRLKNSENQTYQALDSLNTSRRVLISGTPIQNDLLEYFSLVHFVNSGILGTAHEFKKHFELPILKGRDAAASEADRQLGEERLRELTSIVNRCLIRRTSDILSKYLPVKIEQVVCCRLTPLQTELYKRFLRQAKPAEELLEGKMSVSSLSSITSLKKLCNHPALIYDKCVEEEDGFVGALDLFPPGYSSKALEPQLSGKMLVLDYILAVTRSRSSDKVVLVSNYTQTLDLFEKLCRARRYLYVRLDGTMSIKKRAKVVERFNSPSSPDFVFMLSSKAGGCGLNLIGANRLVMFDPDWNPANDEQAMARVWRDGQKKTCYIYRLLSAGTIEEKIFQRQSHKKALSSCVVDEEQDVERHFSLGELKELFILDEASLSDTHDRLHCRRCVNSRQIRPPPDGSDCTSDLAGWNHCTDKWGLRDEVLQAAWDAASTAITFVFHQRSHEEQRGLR

[3] = target: T2, DNA repair protein RAD52 homolog (Homo sapiens, UniProt P43351); format: functional, biochemical
T2 sequence (P43351 whole entry): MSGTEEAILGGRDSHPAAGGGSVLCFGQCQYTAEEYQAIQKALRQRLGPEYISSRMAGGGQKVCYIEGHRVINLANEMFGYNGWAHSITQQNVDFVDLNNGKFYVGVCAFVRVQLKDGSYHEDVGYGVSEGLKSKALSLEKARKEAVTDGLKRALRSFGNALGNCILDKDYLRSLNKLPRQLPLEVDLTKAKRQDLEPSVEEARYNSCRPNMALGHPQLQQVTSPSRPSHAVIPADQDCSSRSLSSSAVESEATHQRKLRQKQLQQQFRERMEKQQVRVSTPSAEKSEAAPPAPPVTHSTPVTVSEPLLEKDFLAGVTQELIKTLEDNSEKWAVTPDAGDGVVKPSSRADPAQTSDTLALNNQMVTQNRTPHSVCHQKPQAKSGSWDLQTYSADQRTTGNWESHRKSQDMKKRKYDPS

[4] = cells; format: functional
[5] = ARNT/TACC3 interaction disruptors, potency, confirmation, biochemical, AlphaScreen, cherry-picked samples (AID 651703); format: functional, Homo sapiens;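 further: His-tagged ARNT PAS-B domain paired with GST-TACC3 E629A dimer coactivator fragment; potency of inhibitors that break up the complex and lower AlphaScreen signal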
[6] = target: Adenosylmethionine-8-amino-7-oxononanoate aminotransferase (Mycobacterium tuberculosis, UniProt P9WQ81); assay: Mycobacterium tuberculosis BioA enzyme inhibitor Measured in Biochemical System Using Plate Reader - 2163-02_Inhibitor_Dose_CherryPick_Activity.; format: functional, Mycobacterium tuberculosis UT205
Chain of Adenosylmethionine-8-amino-7-oxononanoate aminotransferase (P9WQ81 whole entry): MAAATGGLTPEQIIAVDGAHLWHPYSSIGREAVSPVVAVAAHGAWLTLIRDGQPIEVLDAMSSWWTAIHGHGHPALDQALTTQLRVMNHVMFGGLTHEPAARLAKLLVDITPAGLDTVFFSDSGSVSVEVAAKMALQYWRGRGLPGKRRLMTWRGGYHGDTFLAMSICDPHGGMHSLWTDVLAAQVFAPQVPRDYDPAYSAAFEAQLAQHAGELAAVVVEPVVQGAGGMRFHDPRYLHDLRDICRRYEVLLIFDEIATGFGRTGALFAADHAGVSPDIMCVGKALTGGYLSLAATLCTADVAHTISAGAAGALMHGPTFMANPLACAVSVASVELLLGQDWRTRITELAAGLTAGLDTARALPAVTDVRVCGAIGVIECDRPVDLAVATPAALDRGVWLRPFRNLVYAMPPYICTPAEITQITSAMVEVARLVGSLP

[7] = target: Trypsin (Sus scrofa, UniProt P00761); assay: porcine trypsin inhibitors, dose response, selectivity assay for Rce1 protease inhibitor project, biochemical, quenched peptide fluorescence, cherry-pick (AID 488789)
Chain of Trypsin (P00761 whole entry): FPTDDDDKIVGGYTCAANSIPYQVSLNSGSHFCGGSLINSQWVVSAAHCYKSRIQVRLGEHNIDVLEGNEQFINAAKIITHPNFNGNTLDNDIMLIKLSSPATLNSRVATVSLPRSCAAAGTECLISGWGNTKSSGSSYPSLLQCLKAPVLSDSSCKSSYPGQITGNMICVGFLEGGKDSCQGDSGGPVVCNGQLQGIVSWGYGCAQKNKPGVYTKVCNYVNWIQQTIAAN

[8] = target: T3, CAAX prenyl protease 2 (Saccharomyces cerevisiae S288c, UniProt Q03530); format: biochemical
T3 sequence (Q03530 whole entry): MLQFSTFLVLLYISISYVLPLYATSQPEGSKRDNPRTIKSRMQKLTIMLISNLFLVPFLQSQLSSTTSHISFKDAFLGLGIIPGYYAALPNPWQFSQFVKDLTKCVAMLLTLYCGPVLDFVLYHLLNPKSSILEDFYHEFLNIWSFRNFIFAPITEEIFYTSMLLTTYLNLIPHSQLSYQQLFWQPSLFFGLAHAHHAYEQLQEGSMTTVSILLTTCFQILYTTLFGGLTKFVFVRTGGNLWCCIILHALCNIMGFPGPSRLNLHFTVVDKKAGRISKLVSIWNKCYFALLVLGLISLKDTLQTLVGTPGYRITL

[9] = target: T4, CAAX prenyl protease 2 (Homo sapiens, UniProt Q9Y256); assay: human Rce1 protease inhibitors, dose response, biochemical, yeast membranes, quenched-peptide fluorescence, cherry-pick (AID 588849)
T4 sequence (Q9Y256 whole entry): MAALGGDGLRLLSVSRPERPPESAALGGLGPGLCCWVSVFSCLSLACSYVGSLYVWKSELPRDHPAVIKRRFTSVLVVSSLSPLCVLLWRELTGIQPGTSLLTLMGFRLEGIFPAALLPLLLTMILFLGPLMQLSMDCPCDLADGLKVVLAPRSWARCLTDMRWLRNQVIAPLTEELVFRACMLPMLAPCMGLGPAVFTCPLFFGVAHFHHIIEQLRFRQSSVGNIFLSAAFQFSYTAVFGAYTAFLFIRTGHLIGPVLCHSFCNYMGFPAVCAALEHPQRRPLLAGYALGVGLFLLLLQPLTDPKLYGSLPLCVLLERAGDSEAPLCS

[10] = target: T5, Endoribonuclease toxin MazF (Escherichia coli K-12, UniProt P0AE70); assay: MazF toxin RNase activators, dose response, biochemical, fluorescence, single-stranded RNA substrate, uHTS hits (AID 588481); format: functional
T5 sequence (P0AE70 whole entry): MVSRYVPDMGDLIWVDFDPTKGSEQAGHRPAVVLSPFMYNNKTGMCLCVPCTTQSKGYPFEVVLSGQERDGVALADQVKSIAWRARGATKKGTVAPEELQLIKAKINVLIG

[11] = target: T5, Endoribonuclease toxin MazF; assay: fluorescent RNA oligo signal without MazF, dose response, counter-screen for MazEF activator project, biochemical, fluorescence, single-stranded RNase substrate (AID 588502); format: functional
[12] = target: T6, Corticotropin-releasing factor receptor 2/Corticotropin-releasing factor-binding protein (Homo sapiens, UniProt P24387+Q13324); assay: activators of CRF receptor 2 with binding protein – uHTS hits, confirmation (AID 602473); format: functional; details: read-out: EC50_Mean
T6 sequence (Q13324 whole entry): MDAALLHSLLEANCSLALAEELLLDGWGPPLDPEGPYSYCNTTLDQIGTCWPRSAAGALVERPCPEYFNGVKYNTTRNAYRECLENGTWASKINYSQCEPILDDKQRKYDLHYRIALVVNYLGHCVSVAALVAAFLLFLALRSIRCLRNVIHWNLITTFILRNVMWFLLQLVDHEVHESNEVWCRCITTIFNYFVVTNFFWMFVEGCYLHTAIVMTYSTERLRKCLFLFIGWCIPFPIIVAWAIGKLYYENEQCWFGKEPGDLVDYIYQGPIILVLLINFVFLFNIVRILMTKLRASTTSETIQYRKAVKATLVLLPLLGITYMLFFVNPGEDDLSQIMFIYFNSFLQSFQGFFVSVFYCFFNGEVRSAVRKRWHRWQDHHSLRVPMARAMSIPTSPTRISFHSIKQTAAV
T6 sequence (P24387 whole entry): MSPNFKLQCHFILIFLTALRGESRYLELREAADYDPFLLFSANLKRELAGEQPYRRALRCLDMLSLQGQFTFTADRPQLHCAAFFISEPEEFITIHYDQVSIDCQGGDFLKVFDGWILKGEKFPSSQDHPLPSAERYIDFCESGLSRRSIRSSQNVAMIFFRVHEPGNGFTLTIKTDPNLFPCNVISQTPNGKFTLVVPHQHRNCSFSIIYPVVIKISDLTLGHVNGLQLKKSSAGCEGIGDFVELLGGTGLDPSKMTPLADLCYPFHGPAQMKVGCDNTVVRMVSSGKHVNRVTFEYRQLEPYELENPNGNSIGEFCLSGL

[13] = target: Long-chain-fatty-acid--AMP ligase FadD28 (Mycobacterium tuberculosis, UniProt P9WQ59); assay: Fluorescence polarization aasay to screen for inhibitors that compete for the binding of FadD28 to a bisubstrate Measured in Biochemical System Using Plate Reader - 2147-01_Inhibitor_Dose_CherryPick_Activity.; format: functional, Mycobacterium tuberculosis H37Rv
Chain of Long-chain-fatty-acid--AMP ligase FadD28 (P9WQ59 whole entry): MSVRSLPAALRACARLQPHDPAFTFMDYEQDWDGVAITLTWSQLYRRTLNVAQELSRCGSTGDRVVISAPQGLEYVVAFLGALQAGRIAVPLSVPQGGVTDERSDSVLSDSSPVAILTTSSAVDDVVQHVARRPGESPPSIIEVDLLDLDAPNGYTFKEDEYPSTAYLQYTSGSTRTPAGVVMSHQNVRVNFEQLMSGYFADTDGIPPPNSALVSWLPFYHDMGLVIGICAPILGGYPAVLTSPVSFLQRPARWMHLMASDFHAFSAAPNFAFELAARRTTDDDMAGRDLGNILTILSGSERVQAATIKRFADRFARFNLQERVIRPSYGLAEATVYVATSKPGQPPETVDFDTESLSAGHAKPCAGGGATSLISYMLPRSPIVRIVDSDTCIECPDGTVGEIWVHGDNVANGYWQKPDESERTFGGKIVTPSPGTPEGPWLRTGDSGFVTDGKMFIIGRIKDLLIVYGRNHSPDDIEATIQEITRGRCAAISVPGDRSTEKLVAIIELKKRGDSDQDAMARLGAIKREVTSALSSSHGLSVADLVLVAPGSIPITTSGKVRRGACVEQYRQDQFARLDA

[14] = target: Cytochrome P450 3A4 (Homo sapiens, UniProt P08684);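 further: CYP3A4 tested as one member of a cytochrome P450 panel screen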
[15] = target: Cytochrome P450 2C9 (Homo sapiens, UniProt P11712)
Chain of Cytochrome P450 2C9 (P11712 whole entry): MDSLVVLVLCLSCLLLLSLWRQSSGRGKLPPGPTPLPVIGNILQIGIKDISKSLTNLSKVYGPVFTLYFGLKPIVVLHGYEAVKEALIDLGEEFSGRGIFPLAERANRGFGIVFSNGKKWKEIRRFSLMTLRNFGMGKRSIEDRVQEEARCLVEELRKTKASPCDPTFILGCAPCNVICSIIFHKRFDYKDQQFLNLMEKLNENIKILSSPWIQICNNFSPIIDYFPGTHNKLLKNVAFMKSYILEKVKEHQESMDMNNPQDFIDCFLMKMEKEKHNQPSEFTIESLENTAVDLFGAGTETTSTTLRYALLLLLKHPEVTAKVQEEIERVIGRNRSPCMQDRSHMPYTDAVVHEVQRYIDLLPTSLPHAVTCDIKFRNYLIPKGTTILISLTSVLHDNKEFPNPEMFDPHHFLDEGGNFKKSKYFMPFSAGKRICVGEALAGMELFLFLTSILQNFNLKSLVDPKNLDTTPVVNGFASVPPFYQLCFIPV

[16] = target: T7, Heat shock factor protein 1 (Mus musculus, UniProt P38532); assay: HSF1 potentiators in luciferase reporter cells, confirmation, cell-based, NIH3T3, luminescence, dose retest (AID 435004); format: functional;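 further: stress induced by proteasome inhibitor MG132 added 30 min after compound; luciferase reporter driven by HSF1 response element in NIH3T3 cells; actives raise luminescence as potentiators of the MG132 stress response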
T7 sequence (P38532 whole entry): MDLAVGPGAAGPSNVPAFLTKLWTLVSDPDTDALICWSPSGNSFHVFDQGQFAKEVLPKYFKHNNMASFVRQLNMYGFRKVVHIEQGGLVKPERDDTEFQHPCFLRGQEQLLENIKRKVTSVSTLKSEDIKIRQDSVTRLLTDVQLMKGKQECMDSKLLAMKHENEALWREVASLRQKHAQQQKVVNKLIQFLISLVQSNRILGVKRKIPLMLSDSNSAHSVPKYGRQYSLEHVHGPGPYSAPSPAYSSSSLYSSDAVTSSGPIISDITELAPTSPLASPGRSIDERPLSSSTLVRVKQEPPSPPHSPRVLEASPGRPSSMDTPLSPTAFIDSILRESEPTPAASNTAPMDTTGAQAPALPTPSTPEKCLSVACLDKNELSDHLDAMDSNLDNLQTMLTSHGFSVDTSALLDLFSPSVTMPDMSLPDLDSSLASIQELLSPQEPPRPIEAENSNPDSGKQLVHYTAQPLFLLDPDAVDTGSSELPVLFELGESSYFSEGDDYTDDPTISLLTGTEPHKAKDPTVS

[17] = test system: H9c2; assay: cells; format: functional, cell-based; details: Rattus norvegicus, H9c2, Myocardium;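 further: confirmatory concentration-response retest of ultra-high-throughput screening hits for modulation of myocardial damage; cell death induced by hydrogen peroxide oxidative stress; compound pretreatment for 60 min then peroxide exposure for 2 h; potency is for protecting the cells against peroxide damage rather than for killing them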
[18] = target: Ras and Rab interactor 1/Tyrosine-protein kinase ABL1 (Homo sapiens, UniProt P00519+Q13671); format: functional;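 further: biochemical TR-FRET dose-response test measuring inhibition of binding between Rin1 and Abl proteins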
Chain of Ras and Rab interactor 1/Tyrosine-protein kinase ABL1 (P00519 whole entry): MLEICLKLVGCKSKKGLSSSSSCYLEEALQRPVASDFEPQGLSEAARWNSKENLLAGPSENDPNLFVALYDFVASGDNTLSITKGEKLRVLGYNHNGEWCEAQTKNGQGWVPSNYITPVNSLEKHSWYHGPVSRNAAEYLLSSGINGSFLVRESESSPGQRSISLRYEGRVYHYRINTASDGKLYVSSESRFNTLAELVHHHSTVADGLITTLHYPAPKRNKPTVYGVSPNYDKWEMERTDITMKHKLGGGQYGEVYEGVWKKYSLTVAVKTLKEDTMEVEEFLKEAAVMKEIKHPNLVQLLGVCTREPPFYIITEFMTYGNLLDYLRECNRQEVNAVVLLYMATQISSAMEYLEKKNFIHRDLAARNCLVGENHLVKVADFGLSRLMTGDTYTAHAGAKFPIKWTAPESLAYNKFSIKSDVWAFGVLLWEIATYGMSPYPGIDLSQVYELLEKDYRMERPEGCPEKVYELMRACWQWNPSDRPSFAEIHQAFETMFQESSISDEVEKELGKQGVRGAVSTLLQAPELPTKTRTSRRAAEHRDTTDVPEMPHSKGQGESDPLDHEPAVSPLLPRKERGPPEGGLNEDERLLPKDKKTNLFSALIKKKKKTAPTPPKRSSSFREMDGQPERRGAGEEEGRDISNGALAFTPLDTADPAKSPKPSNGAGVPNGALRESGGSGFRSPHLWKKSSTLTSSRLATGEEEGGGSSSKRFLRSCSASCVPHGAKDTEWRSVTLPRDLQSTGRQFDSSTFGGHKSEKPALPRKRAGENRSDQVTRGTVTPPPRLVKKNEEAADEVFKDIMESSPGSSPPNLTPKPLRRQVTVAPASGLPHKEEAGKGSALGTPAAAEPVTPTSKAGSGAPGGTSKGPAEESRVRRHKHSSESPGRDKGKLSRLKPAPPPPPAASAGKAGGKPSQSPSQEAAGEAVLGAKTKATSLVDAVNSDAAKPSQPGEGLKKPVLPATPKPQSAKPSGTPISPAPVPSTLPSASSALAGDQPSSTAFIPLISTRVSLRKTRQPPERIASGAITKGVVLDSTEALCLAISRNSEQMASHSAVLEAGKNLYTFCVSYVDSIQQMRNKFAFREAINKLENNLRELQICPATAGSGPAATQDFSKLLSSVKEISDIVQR
Chain of Ras and Rab interactor 1/Tyrosine-protein kinase ABL1 (Q13671 whole entry): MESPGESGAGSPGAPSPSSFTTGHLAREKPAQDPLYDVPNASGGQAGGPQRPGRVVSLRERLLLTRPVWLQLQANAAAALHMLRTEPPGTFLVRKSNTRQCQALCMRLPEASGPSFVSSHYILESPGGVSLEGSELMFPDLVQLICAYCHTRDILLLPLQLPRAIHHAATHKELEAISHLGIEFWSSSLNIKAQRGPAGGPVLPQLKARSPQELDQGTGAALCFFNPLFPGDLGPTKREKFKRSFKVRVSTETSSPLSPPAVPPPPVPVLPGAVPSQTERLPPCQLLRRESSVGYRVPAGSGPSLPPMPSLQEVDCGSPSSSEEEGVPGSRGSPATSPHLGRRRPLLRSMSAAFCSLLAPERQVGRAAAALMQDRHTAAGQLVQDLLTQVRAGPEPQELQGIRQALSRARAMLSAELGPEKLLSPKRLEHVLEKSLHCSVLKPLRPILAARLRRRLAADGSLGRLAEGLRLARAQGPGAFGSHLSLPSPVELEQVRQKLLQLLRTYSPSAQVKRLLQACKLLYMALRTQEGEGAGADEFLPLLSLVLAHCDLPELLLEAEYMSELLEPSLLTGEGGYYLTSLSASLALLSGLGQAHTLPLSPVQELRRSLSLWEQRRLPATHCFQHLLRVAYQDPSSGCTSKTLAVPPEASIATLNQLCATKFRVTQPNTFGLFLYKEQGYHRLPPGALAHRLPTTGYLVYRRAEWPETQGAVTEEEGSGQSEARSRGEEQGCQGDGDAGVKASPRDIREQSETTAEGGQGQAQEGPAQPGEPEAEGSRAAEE

[19] = target: T6, Corticotropin-releasing factor receptor 2/Corticotropin-releasing factor-binding protein; assay: Dose Response confirmation of uHTS hits for small molecule antagonists of the CRF-binding protein and CRF-R2 receptor complex.; format: functional; details: read-out: IC50_Mean
[20] = CRF-BP/CRF-R2 complex antagonists, dose response, cell-based, uHTS hits, 384-well (AID 651639); format: functional, Homo sapiens; details: read-out: IC50_Mean
[21] = miR-122 activators in hepatoma reporter cells, dose response, cell-based, Huh7 psiCHECK-miR122, Renilla luciferase, cherry-picked (AID 651956); format: functional;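 further: huh7 hepatoma cells stably carrying a psiCHECK-2 miR-122 sensor plasmid; renilla luciferase signal reporting endogenous miR-122 activity after 48 h compound exposure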
[22] = target: Glucose-6-phosphate 1-dehydrogenase (Homo sapiens, UniProt P11413); assay: human G6PD enzyme inhibitors, dose response, selectivity assay for P. falciparum G6PD inhibitor project, biochemical, fluorescence (AID 504792); format: functional
Chain of Glucose-6-phosphate 1-dehydrogenase (P11413 whole entry): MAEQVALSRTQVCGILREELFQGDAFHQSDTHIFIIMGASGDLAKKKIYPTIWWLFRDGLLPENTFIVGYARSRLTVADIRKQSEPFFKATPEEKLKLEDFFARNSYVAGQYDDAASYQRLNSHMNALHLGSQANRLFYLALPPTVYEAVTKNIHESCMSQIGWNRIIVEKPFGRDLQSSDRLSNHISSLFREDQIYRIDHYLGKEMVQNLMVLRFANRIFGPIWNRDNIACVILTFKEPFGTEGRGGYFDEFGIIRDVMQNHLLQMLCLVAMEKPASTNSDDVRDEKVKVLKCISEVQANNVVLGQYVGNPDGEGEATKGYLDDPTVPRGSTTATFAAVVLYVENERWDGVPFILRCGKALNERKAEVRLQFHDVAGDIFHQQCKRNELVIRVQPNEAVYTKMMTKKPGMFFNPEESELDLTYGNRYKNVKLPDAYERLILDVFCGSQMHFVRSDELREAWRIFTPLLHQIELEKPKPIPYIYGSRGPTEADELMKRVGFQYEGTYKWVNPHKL

CCCN(CCC)CCCNC(=O)c1cc2c(-c3ccc(OC)c(OC)c3)nn(C)c2s1
EC50 [1]: 0.531 µM (active) | AC50 [2]: 9.65 µM (active) | AC50 [3]: 3.41 µM (active)

COCCn1c(C)cc(C(=O)COC(=O)c2ccc([N+](=O)[O-])o2)c1C
IC50 [4]: < 0.1 µM (active) | AC50 [5]: 117 µM (active)

COc1cc(-c2nnc(S)n2C(C)c2ccccc2)cc(OC)c1OC (stereo not drawn)
AC50 [6]: 5.84 µM (active)

COc1ccc2c(c1)c1ncn(CCN3CCCCC3)c(=O)c1n2C
AC50 [7]: 13.1 µM (active) | AC50 [8]: 13.9 µM (active) | AC50 [9]: 4.82 µM (active) | AC50 [2]: 35 µM (active)

CC1=Nc2ccccc2/C1=C\c1nc(-c2ccc(C(F)(F)F)cc2)oc1O
EC50 [10]: > 99 µM (inactive) | EC50 [11]: > 99 µM (inactive) | EC50 [12]: 10.2 µM (active) | AC50 [13]: > 100 µM (inactive) | AC50 [14]: 28.2 µM (inconclusive) | AC50 [15]: 12.6 µM (inconclusive)

O=c1[nH]n(CC2COC3(CCCCC3)O2)c(=O)c2ccccc12 (stereo not drawn)
EC50 [16]: 79 µM (active) | IC50 [17]: > 79 µM (inactive) | IC50 [18]: 12.5 µM (inactive)

Cc1cc(C)n2nc(C(=O)Nc3cccnc3)nc2n1
AC50 [6]: 4.85 µM (active)

COc1ccc(C2CCCN2C(=O)Nc2ccc(C)c(C)c2)cc1OC (stereo not drawn)
IC50 [19]: 42.4 µM (active) | EC50 [12]: > 53 µM (inactive) | IC50 [20]: > 20 µM (inactive)

COc1ccc(S(=O)(=O)N(C)C[C@@H]2Oc3ncc(/C=C/c4ccccc4)cc3C(=O)N([C@@H](C)CO)C[C@@H]2C)cc1
AC50 [21]: 2.03 µM (active)

COc1ccc(Cl)cc1NC(=O)c1cccc([N+](=O)[O-])c1O
IC50 [22]: 46.5 µM (inactive) | IC50 [19]: 2.55 µM (active) | EC50 [12]: > 53 µM (inactive) | IC50 [20]: 8.13 µM (active)
